The structures appear in SMILES notation. Read-outs that look alike come from different tables or passages of the source.

Assay [1] has as its system adult male C57 mice. As to the kind of experiment: Tail suspension test (TST). Particulars: route sc, p < 0.05 compared to vehicle-treated mice; for minimal effective dose: Mus musculus, read-out: Active TST Dose. In kind it is in vivo, mouse. On the procedure: The experiments were performed using adult male C57 mice (6-10 weeks of age, 20-30 g, Hilltop Lab, PA). The mice were housed in standard rodent cages with stainless steel mesh wire bar lids in groups of 4 with controlled temperature and light cycle (6:00 a.m.-6:00 p.m.). Animals were given free access to food (Harlan Teklad Global 18% protein (Madison, Wis.)) and water during a minimum 2-day habituation period to the laboratory. Animals that were used in the study were handled, housed, and sacrificed (using compressed CO2) in accord with the current NIH guidelines regarding the use and care of laboratory animals, and all applicable local, state, and federal regulations and guidelines. Animals are identified by cage number, and by markings applied to the proximal tip of the tail using a permanent marker. Group sizes (n=8, and therefore 30-50 animals per study) provide reliable estimates of treatment effects, and this species and strain of mouse has been recognized as appropriate for pharmacology studies.
To measure efficacy of the compounds the compounds were tested using a tail suspension test. The tail suspension test is a behavioral test used to evaluate the efficacy of antidepressant drugs in rodents. In the TST, mice (n=8/group) were suspended by the tail with tape approximately 30-50 cm above the lab bench. Mice are positioned such that the base of their tail is perpendicular to the lab bench. Each mouse is given 1 trial that last 6 minutes. The total duration of immobility is calculated as the percentage of time that the mouse is immobile. The duration of immobility is the main parameter measured. This is calculated from the cumulated time during which the animals is absent of initiated movements including passive swaying. When antidepressant drugs are administered, immobility is decreased by a variety of classes of antidepressant drugs. One or more of the compounds show antidepressant activity.

Assay [2] concerns mouse. As to the kind of experiment: Tactile allodynia produced by nitroglycerin (migraine model, mouse). In kind it is in vivo. As to conditions: route sc, nitroglycerin 10 mg/kg ip, p < 0.05 vs vehicle; for minimal effective dose: read-out: Active Migraine Doses. The protocol: Compounds were tested for efficacy in rodent models of nitroglycerine induced migraine. In this model both rats and mice can be induced to have a behavioral response consistent with the progression of a migraine attack by the intraperitoneal injection of nitroglycerin. In this test mice or rats (n=8/group) are given an intraperitoneal injection of nitroglycerin at 10 mg/kg. After 90 minutes the animals are subcutaneously dosed with test compound. A measurement of mechanical allodynia will be obtained using the up/down method with seven von Frey monofilaments. There is a specific series used for rat and mouse. Each monofilament is delivered to the hind paw for approximately 1-2 seconds. If there is a response, the next lower force will be delivered. This procedure will be performed until no response was made at the highest force or until four stimuli are administered following the initial response. The 50% paw withdrawal threshold for the hind paw will be calculated using the following formula: [Xth]log=[vFr]log+ky where [vFr] is the force of the last von Frey used, k is the average interval (in log units) between the von Frey monofilaments, and y is a value that depends upon the pattern of withdrawal responses. Testing for tactile sensitivity will be performed and a withdrawal value will be assigned as the tactile sensitivity (expressed in grams of force required to elicit a response) for the injected paw for each animal. Data is presented as the mean grams required to produce a hind paw withdrawal from the von Frey stimulus. […] Compounds found to be effective in this model of migraine at the doses indicated, although other doses may also be active. Other compounds described herein were not necessarily tested, but are expected to be able have some level of efficacy.

The test system of assay [3] is rat. As to the kind of experiment: Tactile allodynia produced by nitroglycerin (migraine model, rat). As to conditions: route sc, nitroglycerin 10 mg/kg ip, p < 0.05 vs vehicle. In kind it is in vivo.
In assay [4] the test system is rat. Nature of the assay: Mechanical allodynia after Freund's Complete Adjuvant, Randall-Selitto (rat). In kind it is in vivo. As to conditions: route sc, p < 0.05 vs vehicle. On the procedure: Animals were acclimated to the vivarium for at least 48 hr prior to behavioral testing. Inflammation was induced for both rodent species with the administration of an intraplantar (subcutaneous injection into the plantar surface of the hind paw, i.pl.) injection of 0.10 ml Freund's Complete Adjuvant (FCA).
For rat studies, the experiments were conducted 24 hours after CFA administration. Rats are tested for mechanical allodynia in a Randall-Selitto apparatus. The inflamed paw is put on a pedestal and a pointed force of increasing intensity (0 to 250 grams) is applied to the paw. When the animal struggles to withdraw from the force the test is stopped and the force to induce that struggle is recorded. Data may be presented as mean grams of force to withdrawal or a percentage of the maximum possible effect.

For `COCCOc1ccc([C@@H]2CCN(CCc3ccccc3)[C@H](C)[C@H]2COc2ccc3c(c2)C(=O)NC3)cc1F` [Compound B1194, (−)-6-{[trans, trans-4-[3-fluoro-4-(2-methoxyethoxy)phenyl]-2-methyl-1-(2-phenylethy)piperidin-3-yl]methoxy}-2,3-dihydro-1H-isoindol-1-one], the minimal effective dose in assay [1] and in assay [2] was no more than 10 mg/kg throughout.
Take `C[C@@H]1[C@@H](COc2ccc3c(c2)C(=O)NC3)[C@H](c2ccccc2)CCN1CCC=C(F)F` [Compound B1211]: the minimal effective dose in assay [1] and in assay [2] was no more than 10 mg/kg in each case.
Consider `COCCOc1ccc([C@@H]2CCN(CCc3ccccc3F)[C@H](C)[C@H]2COc2ccc3c(c2)C(=O)NC3)cc1` [Compound B1079], for which the minimal effective dose in assay [1] (po) is no more than 30 mg/kg.
Regarding `COCCOc1ccc([C@@H]2CCN(CCn3cccc3)[C@H](C)[C@H]2COc2ccc3c(c2)C(=O)NC3)cc1F` [Compound B1205, (−)-6-{[trans, trans-4-[3-fluoro-4-(2-methoxyethoxy)phenyl]-2-methyl-1-[2-(1H-pyrrol-1-yl)ethyl]piperidin-3-yl]methoxy}-2,3-dihydro-1H-isoindol-1-one], the “Active Migraine Doses” value in assay [3] is on record as no more than 10 mg/kg. The minimal effective dose is no more than 30 mg/kg in assay [1] (po) and no more than 10 mg/kg in assay [2].
Consider `COc1cc(F)cc([C@@H]2CCN(CCn3cccc3)[C@H](C)[C@H]2COc2ccc3c(c2)C(=O)NC3)c1` (racemic) [Compound B1401, (−)-6-{[trans, trans-4-(3-fluoro-5-methoxyphenyl)-2-methyl-1-[2-(1H-pyrrol-1-yl)ethyl]piperidin-3-yl]methoxy}-2,3-dihydro-1H-isoindol-1-one], for which the “Active Migraine Doses” value in assay [3] is no more than 10 mg/kg. The minimal effective dose in assay [1] and in assay [2] was no more than 10 mg/kg in each case.
`CC1C(COc2ccc3c(c2)C(=O)NC3)C(c2ccc3c(c2)OCCC3)CCN1CCn1cccc1` (single isomer, unassigned; (-)) [Compound B1365, (−)-6-{[trans, trans-4-(3,4-dihydro-2H-1-benzopyran-7-yl)-2-methyl-1-[2-(1H-pyrrol-1-yl)ethyl]piperidin-3-yl]methoxy}-2,3-dihydro-1H-isoindol-1-one]: the “Active Migraine Doses” value in assay [3] and in assay [2] was no more than 10 mg/kg each time. Also, the “Active TST Dose” value in assay [1] is on record as no more than 10 mg/kg.
`COc1ccc([C@@H]2CCN(CCn3cccc3)[C@H](C)[C@H]2COc2ccc3c(c2)C(=O)NC3)cc1` [Compound B0876, (−)-6-{[trans, trans-4-(4-methoxyphenyl)-2-methyl-1-[2-(1H-pyrrol-1-yl)ethyl]piperidin-3-yl]methoxy}-2,3-dihydro-1H-isoindol-1-one]: the “Active Migraine Doses” value in assay [3] was no more than 10 mg/kg. For the same compound, the minimal effective dose in assay [1] (po) was no more than 30 mg/kg; in assay [2], no more than 10 mg/kg.
For the compound `C[C@@H]1[C@@H](COc2ccc3c(c2)C(=O)NC3)[C@H](c2ccc(F)cc2)CCN1CC1CC1` [Compound B0720], the “Active CFA Dose” value in assay [4] is no more than 30 mg/kg. Moreover, the minimal effective dose in assay [1] (po) and in assay [2] was no more than 10 mg/kg in each case.
In the case of `COc1cc(F)cc(C2CCN(CCn3cccc3)C(C)C2COc2ccc3c(c2)C(=O)NC3)c1` (mixture of isomers) [Compound B1274, (+/−)-6-{[(trans, trans)-4-(3-fluoro-5-methoxyphenyl)-2-methyl-1-[2-(1H-pyrrol-1-yl)ethyl]piperidin-3-yl]methoxy}-2,3-dihydro-1H-isoindol-1-one], the “Active TST Dose” value in assay [1] was no more than 10 mg/kg.

(Values after patent US11465980B2, “6-membered aza-heterocyclic containing delta-opioid receptor modulating compounds, methods of using and making the same” (Trevena, Inc., priority 2015, dated 2022).)
